Test results taken from patent US10550102B2, “Indane and indoline derivatives and the use thereof as soluble guanylate cyclase activators” (NOVARTIS AG, priority 2014, dated 2020).
pEC50: −log10 of the molar value.

Target: soluble guanylate cyclase (human GUCYA3 and GUCYB3) overexpressed in CHO cells (Homo sapiens (Human), UniProt Q02108+Q02153)
Experiment: CHO cellular assay (cGMP production, Cisbio cGMP HTRF kit)
Format: cell-based
Conditions: CHO GUCY clone 8E10, cGMP production, assay buffer with 1 mM IBMX and 20 uM ODQ, 1 h room temperature; minimum quantification limit 0.5 nM (listed 0.5 nM means ≤0.5 nM); read-out: EC50
How it was run: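 EC50 was derived by 4-parameter sigmoidal fit of cGMP levels, read by HTRF against a standard curve. Compounds were applied for 1 h at room temperature, in buffer with 20 uM ODQ, 1 mM IBMX and 0.1% BSA (0.5% DMSO final). The cells were a stable CHO-K1 line (clone 8E10) overexpressing human GUCYA3 and GUCYB3, seeded at 3000/well.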

Chain of soluble guanylate cyclase (human GUCYA3 and GUCYB3) overexpressed in CHO cells (Q02108 whole entry partner): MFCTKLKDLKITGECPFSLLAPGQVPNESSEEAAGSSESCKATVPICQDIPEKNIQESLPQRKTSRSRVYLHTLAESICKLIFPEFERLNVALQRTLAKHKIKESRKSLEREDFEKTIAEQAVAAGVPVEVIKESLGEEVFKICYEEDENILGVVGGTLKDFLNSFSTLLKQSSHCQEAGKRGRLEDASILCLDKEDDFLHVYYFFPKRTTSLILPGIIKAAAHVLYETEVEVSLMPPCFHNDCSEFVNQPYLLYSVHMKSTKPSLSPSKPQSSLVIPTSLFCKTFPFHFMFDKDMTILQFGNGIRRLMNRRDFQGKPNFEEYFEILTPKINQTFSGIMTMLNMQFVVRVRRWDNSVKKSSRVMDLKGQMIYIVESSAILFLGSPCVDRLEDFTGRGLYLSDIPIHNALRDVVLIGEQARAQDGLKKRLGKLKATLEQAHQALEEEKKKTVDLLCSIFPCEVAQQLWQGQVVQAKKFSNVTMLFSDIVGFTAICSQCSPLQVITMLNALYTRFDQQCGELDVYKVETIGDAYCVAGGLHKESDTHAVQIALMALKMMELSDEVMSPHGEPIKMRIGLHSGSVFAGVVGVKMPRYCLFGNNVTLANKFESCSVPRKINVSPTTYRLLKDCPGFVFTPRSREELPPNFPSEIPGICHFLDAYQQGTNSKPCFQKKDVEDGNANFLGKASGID
Chain of soluble guanylate cyclase (human GUCYA3 and GUCYB3) overexpressed in CHO cells (Q02153 whole entry): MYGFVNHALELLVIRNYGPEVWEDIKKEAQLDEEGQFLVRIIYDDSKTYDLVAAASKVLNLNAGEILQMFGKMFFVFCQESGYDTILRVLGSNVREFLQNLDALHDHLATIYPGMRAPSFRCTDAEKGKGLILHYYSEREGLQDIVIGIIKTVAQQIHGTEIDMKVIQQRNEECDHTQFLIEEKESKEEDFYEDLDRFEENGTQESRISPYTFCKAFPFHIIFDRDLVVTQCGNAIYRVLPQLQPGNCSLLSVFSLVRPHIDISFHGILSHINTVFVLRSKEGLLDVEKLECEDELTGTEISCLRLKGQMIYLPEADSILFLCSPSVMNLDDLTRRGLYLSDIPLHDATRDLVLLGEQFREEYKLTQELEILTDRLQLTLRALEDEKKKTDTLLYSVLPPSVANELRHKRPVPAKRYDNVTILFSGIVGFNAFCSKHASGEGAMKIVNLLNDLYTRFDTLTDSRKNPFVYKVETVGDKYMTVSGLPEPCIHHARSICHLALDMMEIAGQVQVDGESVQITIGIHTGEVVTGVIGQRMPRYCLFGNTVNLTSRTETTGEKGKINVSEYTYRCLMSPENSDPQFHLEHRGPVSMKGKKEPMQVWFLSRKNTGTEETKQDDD

pEC50 | Compound
8.22 | Cc1cc(C2CCN(C(=O)C3CC3)CC2)cnc1NC1CCc2cccc(-c3cccc(-n4ncc(C(=O)O)c4C)n3)c21 (racemic) [Example 62, (±)-1-(6-(3-((5-(1-Cyclopropanecarbonyl)piperidin-4-yl)-3-methylpyridin-2-yl)amino)-2,3-dihydro-1H-inden-4-yl)pyridin-2-yl)-5-methyl-1H-pyrazole-4-carboxylic Acid]
≥ 9.30 | CCc1cc(O[C@H]2CCc3cccc(-c4cccc(-n5ncc(C(=O)O)c5CC)n4)c32)ccc1C1CCN(C(=O)C2(O)CC2)CC1 [Example 33, (S)-5-ethyl-1-(6-(3-(3-ethyl-4-(1-(1-hydroxycyclopropanecarbonyl)piperidin-4-yl)phenoxy)-2,3-dihydro-1H-inden-4-yl)pyridin-2-yl)-1H-pyrazole-4-carboxylic Acid]
≥ 9.30 | Cc1cc(C2CCN(C(=O)C3CC3)CC2)ccc1O[C@H]1CCc2cccc(-c3cccc(-n4ncc(C(=O)O)c4C)n3)c21 [Example 5-6]
≥ 9.30 | CCc1cc(CC2CCc3cccc(-c4cccc(-n5ncc(C(=O)O)c5C)c4)c32)ccc1C1CCN(C(=O)C2CC2)CC1 (single isomer, unassigned; (+)) [55-1 (+), (+)-1-(3-(3-(4-(1-(cyclopropanecarbonyl)piperidin-4-yl)-3-ethylbenzyl)-2,3-dihydro-1H-inden-4-yl)phenyl)-5-methyl-1H-pyrazole-4-carboxylic acid]
≥ 9.30 | CCc1cc(O[C@H]2CCc3cccc(-c4cccc(-n5ncc(C(=O)O)c5C(F)(F)F)n4)c32)ccc1C1CCN(C(=O)C2CC2)CC1 [Example 5-3]
≥ 9.30 | Cc1cc(C2CCN(C(=O)[C@H](C)O)CC2)ccc1NC1COc2cccc(-c3cccc(-n4ncc(C(=O)O)c4C)n3)c21 (single isomer, unassigned; (+)) [Example 35a]
8.41 | Cc1cc(C2CCN(C(=O)C3CC3)CC2)ccc1NC1COc2cccc(-c3cccc(-n4ncc(C(=O)O)c4C)n3)c21 (single isomer, unassigned; (-)) [Example 34b]
≥ 9.30 | CCc1cc(CN2CC(C)c3cccc(-c4cccc(-n5ncc(C(=O)O)c5CC)n4)c32)ccc1C1CCN(C(=O)[C@H](C)O)CC1 (single isomer, unassigned) [Example 17a]
6.52 | Cc1cc(C2CCN(C(=O)CC3CC3)CC2)ccc1NC1CCc2cccc(-c3cccc(-n4ncc(C(=O)O)c4C)n3)c21 (single isomer, unassigned; (-)) [(−)-46-3, (−)-1-(6-(3-((4-(1-(2-Cyclopropylacetyl)piperidin-4-yl)-2-methylphenyl)amino)-2,3-dihydro-1H-inden-4-yl)pyridin-2-yl)-5-methyl-1H-pyrazole-4-carboylic acid]
9.00 | Cc1cc2c(c(-c3cccc(-n4ncc(C(=O)O)c4C(F)(F)F)n3)c1)C(Oc1ccc(C3CCN(C(=O)C4CC4)CC3)cc1C)CC2 (centres unmarked) [Example 5-2]
≥ 9.30 | CCc1c(C(=O)O)cnn1-c1cccc(-c2cccc3c2C(Cc2ccc(C4CCN(C(=O)[C@H](C)O)CC4)cc2C)CC3)n1 (single isomer, unassigned; (+)) [40-2 (+)]
≥ 9.30 | CCc1cc(CN2CC(C)c3cccc(-c4cccc(-n5ncc(C(=O)O)c5C(F)(F)F)n4)c32)ccc1C1CCN(C(=O)C2CC2)CC1 (single isomer, unassigned; (+)) [Example 19a]
7.77 | CCc1cc(CC2CCc3cccc(-c4cccc(-n5ncc(C(=O)O)c5CC)n4)c32)ccc1C1CCN(C(=O)C2CC2)CC1 (single isomer, unassigned; (-)) [38-1 (−), (−)-1-(6-(3-(4-(1-(cyclopropanecarbonyl)piperidin-4-yl)-3-ethylbenzyl)-2,3-dihydro-1H-inden-4-yl)pyridin-2-yl)-5-ethyl-1H-pyrazole-4-carboxylic acid]
≥ 9.30 | CCc1cc(NC2CCc3cccc(-c4cccc(-n5ncc(C(=O)O)c5CC)n4)c32)ccc1C1CCN(C(=O)[C@H](C)O)CC1 (single isomer, unassigned; (+)) [Example 48a]
9.00 | Cc1cc(C2CCN(C(=O)C3CC3)CC2)ccc1OC1CCc2cccc(-c3cccc(-n4ncc(C(=O)O)c4C(F)(F)F)n3)c21 (single isomer, unassigned; (+)) [Example 3a, (+)-1-(6-(3-(4-(1-(cyclopropanecarbonyl)piperidin-4-yl)-2-methylphenoxy)-2,3-dihydro-1H-inden-4-yl)pyridin-2-yl)-5-(trifluoromethyl)-1H-pyrazole-4-carboxylic Acid]
≥ 9.30 | CCc1cc(O[C@H]2CCc3cccc(-c4cccc(-n5ncc(C(=O)O)c5CC)n4)c32)ccc1C1CCN(C(=O)C2(O)CCC2)CC1 [Example 31-4, (S)-5-Ethyl-1-(6-(3-(3-ethyl-4-(1-(1-hydroxycyclobutanecarbonyl)piperidin-4-yl)phenoxy)-2,3-dihydro-1H-inden-4-yl)pyridin-2-yl)-1H-pyrazole-4-carboxylic acid]
7.31 | CCC[C@H](O)C(=O)N1CCC(c2ccc(CC3CCc4cccc(-c5cccc(-n6ncc(C(=O)O)c6CC)n5)c43)c(C)c2)CC1 (single isomer, unassigned; (-)) [40-3 (−)]
≥ 9.30 | CCc1c(C(=O)O)cnn1-c1cccc(-c2cccc3c2C(Cc2ccc(C4CCN(C(=O)OC)CC4)cc2C)CC3)n1 (single isomer, unassigned; (+)) [Example 42. b). (+), (+)-5-ethyl-1-(6-(3-(4-(1-(methoxycarbonyl)piperidin-4-yl)-2-methylbenzyl)-2,3-dihydro-1H-inden-4-yl)pyridin-2-yl)-1H-pyrazole-4-carboxylic acid]
≥ 9.30 | CCc1cc(CN2CC(C)c3cccc(-c4cccc(-n5ncc(C(=O)O)c5C)n4)c32)ccc1C1CCN(C(=O)C2CC2)CC1 (single isomer, unassigned; (+)) [(+)-20-3, (+)-1-(6-(1-(4-(1-(Cyclopropanecarbonyl)piperidin-4-yl)-3-ethylbenzyl)-3-methylindolin-7-yl)pyridin-2-yl)-5-methyl-1H-pyrazole-4-carboxylic acid]
9.00 | COCCOC(=O)N1CCC(c2ccc(NC3CCc4cccc(-c5cccc(-n6ncc(C(=O)O)c6C)n5)c43)c(C)c2)CC1 (centres unmarked) [Example 52-5]
9.00 | Cc1cc(C2CCN(C(=O)C3CC3)CC2)ccc1CC1CCc2cccc(-c3cccc(-n4ncc(C(=O)O)c4C)c3)c21 (single isomer, unassigned; (+)) [54. b). (+), (+)-1-(3-(3-(4-(1-(cyclopropanecarbonyl)piperidin-4-yl)-2-methylbenzyl)-2,3-dihydro-1H-inden-4-yl)phenyl)-5-methyl-1H-pyrazole-4-carboxylic acid]
9.00 | CCc1cc(NC2CCc3cccc(-c4cccc(-n5ncc(C(=O)O)c5CC)n4)c32)ccc1C1CCN(C(=O)OC)CC1 (single isomer, unassigned; (-)) [(−)-52-2, (−)-5-Ethyl-1-(6-(3-((3-ethyl-4-(1-(methoxycarbonyl)piperidin-4-yl)phenyl)amino)-2,3-dihydro-1H-inden-4-yl)pyridin-2-yl)-1H-pyrazole-4-carboxylic acid]
8.00 | Cc1cc(C2CCN(C(=O)C3CC3)CC2)ccc1OC1CCc2cccc(-c3cccc(-n4ncc(C(=O)O)c4C(F)(F)F)c3)c21 (single isomer, unassigned; (-)) [Example (−)-1. b), (−)-1-(3-(3-(4-(1-(cyclopropanecarbonyl)piperidin-4-yl)-2-methylphenoxy)-2,3-dihydro-1H-inden-4-yl)phenyl)-5-(trifluoromethyl)-1H-pyrazole-4-carboxylic acid]
